{"source": "patent US20050112183A1", "about": "“Compositions and methods for treating neuropathic sensory loss” (priority 2003, published 2005)", "test_system": "neuropathically induced negative sensory phenomena (NSP)", "test": "application of local anesthetic to diabetic neuropathy patients, patient-reported", "type": "in vivo", "conditions": "some diabetic neuropathy patients; local application of the anesthetic", "from_the_text": "It has previously been assumed that positive sensory phenomena (“PSP”) is caused by an increase in spontaneous nerve discharge from damaged and dysfunctional peripheral nerves. […] Based on the current understanding of the underlying etiology of NSP it would be unexpected that an anesthetic would effectively mitigate the negative effects of NSP. It has now been found, however, that the application of local anesthetics such as lidocaine can effectively treat NSP. For example, some diabetic neuropathy patients reported both pain relief and improved NSP, that is, the patients experienced pain relief, improvement of sensory loss (decreased numbness), and improved tactile response (they could better feel objects touching their skin). Thus the anesthetic as applied in this embodiment decreased numbness. This is contrary to all prior teachings about anesthetics."}
{"smiles": "CCN(CC)CC(=O)Nc1c(C)cccc1C", "note": "[lidocaine, 2-(diethylamino)-N-(2,6-dimethylphenyl)-acetamide]", "values": [{"measurement": "negative sensory phenomena (NSP: numbness, sensory loss, tactile response) as reported by patients", "result": "improved NSP"}, {"measurement": "pain as reported by patients", "result": "pain relief"}]}
